Like-named read-outs stand apart in the source and are kept apart here.
Experiments:
Experiment in all cases: biochemical
Design in all cases: KINOMEscan scanMAX competition binding, DNA-tagged kinases, qPCR read-out, percent control at 300 nM
GAK = molecular target: T1, GAK (Homo sapiens, UniProt O14976)
T1 sequence (O14976 1-1311): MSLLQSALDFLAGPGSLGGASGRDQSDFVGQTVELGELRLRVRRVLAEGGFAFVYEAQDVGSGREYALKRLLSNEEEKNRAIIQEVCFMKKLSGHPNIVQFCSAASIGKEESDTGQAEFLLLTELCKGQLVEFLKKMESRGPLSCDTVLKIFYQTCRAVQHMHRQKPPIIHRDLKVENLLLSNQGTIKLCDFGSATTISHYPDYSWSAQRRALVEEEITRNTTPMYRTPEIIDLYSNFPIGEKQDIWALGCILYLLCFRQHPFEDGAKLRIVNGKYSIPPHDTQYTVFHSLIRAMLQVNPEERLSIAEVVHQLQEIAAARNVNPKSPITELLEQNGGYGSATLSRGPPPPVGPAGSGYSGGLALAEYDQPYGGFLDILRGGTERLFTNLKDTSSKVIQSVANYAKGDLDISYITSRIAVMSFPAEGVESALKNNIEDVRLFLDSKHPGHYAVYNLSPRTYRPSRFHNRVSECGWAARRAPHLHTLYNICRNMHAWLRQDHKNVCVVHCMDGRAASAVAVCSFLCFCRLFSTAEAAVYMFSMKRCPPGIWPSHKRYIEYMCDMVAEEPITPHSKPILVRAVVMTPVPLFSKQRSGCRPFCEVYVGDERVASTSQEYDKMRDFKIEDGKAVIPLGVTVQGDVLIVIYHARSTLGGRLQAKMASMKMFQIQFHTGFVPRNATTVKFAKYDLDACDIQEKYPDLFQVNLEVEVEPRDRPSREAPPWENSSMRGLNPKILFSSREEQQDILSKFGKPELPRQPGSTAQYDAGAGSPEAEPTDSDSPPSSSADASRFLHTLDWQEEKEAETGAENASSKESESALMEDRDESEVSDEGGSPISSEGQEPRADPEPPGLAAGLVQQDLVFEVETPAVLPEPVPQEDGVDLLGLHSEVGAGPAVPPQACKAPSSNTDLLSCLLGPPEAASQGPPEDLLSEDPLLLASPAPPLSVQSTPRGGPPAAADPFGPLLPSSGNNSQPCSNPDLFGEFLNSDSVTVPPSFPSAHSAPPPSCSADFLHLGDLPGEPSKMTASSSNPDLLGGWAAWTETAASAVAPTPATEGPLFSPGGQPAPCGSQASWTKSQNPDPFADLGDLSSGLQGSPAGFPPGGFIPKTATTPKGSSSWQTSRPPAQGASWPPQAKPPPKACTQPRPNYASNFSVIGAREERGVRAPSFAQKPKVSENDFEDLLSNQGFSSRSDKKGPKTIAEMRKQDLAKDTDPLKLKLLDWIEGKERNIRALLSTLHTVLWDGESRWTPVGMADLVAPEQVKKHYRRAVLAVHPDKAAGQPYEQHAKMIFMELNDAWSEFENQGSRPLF

KIT(D816H) = KIT(D816H) (Homo sapiens, UniProt P10721, D816H)
KIT(D816H), sequence (P10721 whole entry D816H): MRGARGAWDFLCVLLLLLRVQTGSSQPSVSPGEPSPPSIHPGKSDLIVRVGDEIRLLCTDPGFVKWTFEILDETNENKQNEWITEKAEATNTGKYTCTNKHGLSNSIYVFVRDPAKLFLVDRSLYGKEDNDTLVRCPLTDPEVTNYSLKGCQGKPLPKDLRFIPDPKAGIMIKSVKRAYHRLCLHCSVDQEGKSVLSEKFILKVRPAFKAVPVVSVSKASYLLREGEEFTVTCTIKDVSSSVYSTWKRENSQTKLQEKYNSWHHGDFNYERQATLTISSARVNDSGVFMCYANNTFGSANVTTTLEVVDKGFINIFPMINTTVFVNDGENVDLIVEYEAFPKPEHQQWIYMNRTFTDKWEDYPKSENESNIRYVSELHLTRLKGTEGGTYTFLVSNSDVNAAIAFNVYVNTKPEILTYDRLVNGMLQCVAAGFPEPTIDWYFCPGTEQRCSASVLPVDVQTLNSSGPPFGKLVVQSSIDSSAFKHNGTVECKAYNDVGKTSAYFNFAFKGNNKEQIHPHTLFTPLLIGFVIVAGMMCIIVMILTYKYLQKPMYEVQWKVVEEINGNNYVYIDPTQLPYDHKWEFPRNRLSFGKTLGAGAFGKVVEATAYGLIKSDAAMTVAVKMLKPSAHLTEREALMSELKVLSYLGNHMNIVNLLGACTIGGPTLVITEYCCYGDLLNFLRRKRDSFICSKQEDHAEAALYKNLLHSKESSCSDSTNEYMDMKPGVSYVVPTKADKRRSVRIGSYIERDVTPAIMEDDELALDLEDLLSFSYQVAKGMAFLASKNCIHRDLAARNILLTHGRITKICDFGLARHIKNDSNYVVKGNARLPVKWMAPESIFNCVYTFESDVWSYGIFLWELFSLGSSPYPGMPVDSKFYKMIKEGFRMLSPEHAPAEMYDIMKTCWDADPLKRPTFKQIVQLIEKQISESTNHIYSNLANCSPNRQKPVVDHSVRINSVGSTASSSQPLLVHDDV

PDGFRA = PDGFRA (Homo sapiens, UniProt P16234)
PDGFRA, sequence (P16234 whole entry): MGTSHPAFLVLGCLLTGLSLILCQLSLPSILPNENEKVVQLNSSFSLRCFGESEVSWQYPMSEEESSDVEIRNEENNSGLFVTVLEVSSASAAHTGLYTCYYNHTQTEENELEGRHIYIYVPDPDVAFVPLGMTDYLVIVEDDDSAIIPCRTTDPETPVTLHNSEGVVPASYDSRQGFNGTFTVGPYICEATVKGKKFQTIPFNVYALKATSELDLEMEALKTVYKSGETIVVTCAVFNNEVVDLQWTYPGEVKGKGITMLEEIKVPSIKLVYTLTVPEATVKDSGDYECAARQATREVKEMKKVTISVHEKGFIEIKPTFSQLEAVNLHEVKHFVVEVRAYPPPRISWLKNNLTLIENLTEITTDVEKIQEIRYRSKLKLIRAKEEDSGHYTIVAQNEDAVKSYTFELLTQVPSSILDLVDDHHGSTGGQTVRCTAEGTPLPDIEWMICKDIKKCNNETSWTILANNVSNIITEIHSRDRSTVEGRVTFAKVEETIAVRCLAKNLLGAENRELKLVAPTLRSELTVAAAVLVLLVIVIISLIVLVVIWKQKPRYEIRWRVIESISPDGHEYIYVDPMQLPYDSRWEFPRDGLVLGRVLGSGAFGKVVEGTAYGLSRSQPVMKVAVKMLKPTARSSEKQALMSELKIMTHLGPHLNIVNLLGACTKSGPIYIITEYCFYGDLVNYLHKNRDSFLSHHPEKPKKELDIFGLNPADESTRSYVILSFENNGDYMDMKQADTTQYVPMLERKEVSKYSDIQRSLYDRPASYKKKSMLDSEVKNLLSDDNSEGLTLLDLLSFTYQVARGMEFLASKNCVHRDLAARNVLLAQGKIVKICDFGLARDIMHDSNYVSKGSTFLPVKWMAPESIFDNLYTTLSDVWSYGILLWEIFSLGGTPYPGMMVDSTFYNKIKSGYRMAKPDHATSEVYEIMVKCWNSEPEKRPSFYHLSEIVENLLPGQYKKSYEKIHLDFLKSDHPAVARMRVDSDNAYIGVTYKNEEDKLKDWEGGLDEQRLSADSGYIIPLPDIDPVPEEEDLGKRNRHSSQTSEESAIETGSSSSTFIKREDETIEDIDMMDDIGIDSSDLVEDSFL

AURKC = molecular target: T2, AURKC (Homo sapiens, UniProt Q9UQB9)
T2 sequence (Q9UQB9 1-309): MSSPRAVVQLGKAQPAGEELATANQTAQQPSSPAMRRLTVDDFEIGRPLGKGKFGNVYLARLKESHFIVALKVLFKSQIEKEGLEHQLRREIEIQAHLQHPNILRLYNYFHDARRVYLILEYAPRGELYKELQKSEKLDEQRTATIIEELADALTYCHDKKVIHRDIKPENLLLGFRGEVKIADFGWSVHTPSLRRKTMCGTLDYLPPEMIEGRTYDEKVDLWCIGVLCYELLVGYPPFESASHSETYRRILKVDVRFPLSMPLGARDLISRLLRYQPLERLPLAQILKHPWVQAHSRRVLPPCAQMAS

TNIK = TNIK (Homo sapiens, UniProt Q9UKE5)
BLK = BLK (Homo sapiens, UniProt P51451)
BLK, sequence (P51451 whole entry): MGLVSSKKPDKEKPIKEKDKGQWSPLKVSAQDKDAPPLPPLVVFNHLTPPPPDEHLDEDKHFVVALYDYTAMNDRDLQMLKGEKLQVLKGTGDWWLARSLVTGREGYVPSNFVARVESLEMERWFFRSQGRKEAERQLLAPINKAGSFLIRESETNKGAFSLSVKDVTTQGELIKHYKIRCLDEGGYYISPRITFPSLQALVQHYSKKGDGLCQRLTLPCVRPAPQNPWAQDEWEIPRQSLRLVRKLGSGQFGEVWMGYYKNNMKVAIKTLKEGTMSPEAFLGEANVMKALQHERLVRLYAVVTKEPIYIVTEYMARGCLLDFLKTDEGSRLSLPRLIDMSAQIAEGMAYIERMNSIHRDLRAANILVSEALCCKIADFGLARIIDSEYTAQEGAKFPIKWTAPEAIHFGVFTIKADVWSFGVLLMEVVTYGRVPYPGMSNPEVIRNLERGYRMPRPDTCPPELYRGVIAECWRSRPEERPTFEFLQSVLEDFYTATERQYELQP

BRK = molecular target: T3, BRK (Homo sapiens, UniProt Q13882)
T3 construct: gene PTK6
T3 sequence (Q13882 whole entry): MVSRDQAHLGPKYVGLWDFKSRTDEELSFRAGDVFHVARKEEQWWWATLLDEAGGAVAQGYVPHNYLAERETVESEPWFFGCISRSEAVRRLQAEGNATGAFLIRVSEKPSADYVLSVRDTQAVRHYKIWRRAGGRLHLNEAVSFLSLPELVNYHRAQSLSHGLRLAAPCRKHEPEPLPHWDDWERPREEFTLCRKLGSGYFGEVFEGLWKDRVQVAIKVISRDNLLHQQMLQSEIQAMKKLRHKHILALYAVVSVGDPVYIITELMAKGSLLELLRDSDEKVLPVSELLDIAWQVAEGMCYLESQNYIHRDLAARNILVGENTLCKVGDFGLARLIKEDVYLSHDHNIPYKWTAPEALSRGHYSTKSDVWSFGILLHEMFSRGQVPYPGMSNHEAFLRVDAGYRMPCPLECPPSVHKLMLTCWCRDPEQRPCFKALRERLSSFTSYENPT

STK33 = STK33 (Homo sapiens, UniProt Q9BYT3)
STK33, sequence (Q9BYT3 whole entry): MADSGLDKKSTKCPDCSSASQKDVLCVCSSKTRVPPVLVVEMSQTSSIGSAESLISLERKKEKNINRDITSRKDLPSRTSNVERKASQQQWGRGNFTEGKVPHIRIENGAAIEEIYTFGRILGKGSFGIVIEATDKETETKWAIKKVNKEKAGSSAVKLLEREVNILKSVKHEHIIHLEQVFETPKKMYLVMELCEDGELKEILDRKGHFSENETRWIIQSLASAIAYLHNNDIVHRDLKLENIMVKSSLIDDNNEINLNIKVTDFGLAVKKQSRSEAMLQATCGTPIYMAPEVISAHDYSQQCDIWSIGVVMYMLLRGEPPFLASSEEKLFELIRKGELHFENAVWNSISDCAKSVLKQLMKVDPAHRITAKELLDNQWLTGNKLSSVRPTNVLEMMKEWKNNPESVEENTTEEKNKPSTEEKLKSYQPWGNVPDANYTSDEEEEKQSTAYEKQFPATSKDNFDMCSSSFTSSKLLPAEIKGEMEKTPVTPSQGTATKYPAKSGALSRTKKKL

PLK3 = PLK3 (Homo sapiens, UniProt Q9H4B4)
PLK3, sequence (Q9H4B4 whole entry): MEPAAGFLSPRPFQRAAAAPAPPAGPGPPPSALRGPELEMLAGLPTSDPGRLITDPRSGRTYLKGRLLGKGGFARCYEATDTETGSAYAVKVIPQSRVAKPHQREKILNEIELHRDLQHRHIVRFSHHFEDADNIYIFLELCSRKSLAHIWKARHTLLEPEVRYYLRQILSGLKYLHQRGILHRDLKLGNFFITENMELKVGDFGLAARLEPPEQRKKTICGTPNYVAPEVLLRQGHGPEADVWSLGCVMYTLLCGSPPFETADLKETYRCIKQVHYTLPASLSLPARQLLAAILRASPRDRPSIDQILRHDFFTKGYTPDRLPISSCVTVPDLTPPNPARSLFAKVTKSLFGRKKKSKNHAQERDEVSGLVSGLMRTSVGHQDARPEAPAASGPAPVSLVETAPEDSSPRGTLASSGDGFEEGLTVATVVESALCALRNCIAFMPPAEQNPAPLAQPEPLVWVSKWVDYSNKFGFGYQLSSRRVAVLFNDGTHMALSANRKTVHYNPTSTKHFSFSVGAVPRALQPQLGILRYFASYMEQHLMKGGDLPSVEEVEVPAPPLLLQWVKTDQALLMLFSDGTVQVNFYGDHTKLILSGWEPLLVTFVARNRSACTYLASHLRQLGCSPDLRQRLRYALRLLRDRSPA

NEK7 = NEK7 (Homo sapiens, UniProt Q8TDX7)
NEK7, sequence (Q8TDX7 whole entry): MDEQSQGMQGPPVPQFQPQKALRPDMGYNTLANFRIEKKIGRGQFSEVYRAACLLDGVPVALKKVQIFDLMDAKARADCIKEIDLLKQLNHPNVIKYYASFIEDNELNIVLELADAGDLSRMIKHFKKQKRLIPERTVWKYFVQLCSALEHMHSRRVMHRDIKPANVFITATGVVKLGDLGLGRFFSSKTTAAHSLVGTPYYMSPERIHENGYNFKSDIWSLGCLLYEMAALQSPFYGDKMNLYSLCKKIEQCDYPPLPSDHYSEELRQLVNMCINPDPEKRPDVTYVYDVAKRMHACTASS

VEGFR2 = molecular target: T4, VEGFR2 (Homo sapiens, UniProt P35968)
T4 construct: gene KDR

FGR = FGR (Homo sapiens, UniProt P09769)
FGR, sequence (P09769 whole entry): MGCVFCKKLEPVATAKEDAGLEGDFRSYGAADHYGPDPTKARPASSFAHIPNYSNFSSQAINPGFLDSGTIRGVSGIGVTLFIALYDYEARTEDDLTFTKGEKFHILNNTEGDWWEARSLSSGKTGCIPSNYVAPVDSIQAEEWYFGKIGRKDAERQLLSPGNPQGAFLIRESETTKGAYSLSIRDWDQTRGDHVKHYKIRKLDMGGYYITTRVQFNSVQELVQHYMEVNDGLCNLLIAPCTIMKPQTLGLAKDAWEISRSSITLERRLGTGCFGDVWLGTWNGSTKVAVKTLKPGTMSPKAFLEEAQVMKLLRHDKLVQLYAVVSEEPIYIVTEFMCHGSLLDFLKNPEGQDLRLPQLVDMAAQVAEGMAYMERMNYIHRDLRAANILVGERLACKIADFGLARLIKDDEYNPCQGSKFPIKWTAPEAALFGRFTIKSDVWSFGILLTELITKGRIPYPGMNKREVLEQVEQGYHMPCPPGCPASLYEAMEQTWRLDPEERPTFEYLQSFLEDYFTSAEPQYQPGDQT

[1] = read-out: Percent control / Tirabrutinib
[2] = read-out: Percent control / Ibrutinib
[3] = read-out: Percent control / Zanubrutinib
[4] = read-out: Percent control / Acalabrutinib

Q: What does the source list for `CC#CC(=O)N1CC[C@@H](n2c(=O)n(-c3ccc(Oc4ccccc4)cc3)c3c(N)ncnc32)C1` [Tirabrutinib]?
A: remaining binding at 0.3 µM (GAK; [1]): 95%; remaining binding at 0.3 µM (KIT(D816H); [1]): 84%; remaining binding at 0.3 µM (PDGFRA; [1]): 95%; remaining binding at 0.3 µM (AURKC; [1]): 65%; remaining binding at 0.3 µM (TNIK; [1]): 92%; remaining binding at 0.3 µM (BLK; [1]): 39%

Q: For `C=CC(=O)N1CCC[C@@H](n2nc(-c3ccc(Oc4ccccc4)cc3)c3c(N)ncnc32)C1` [Ibrutinib], which remaining binding at 0.3 µM (BRK; [2]) is on record?
A: Its remaining binding at 0.3 µM is 3.4%.

Q: And the remaining binding at 0.3 µM (STK33; [2])?
A: Its remaining binding at 0.3 µM is 86%.

Q: What about the remaining binding at 0.3 µM (PLK3; [2]) of the same molecule?
A: The remaining binding at 0.3 µM was 94%.

Q: What about the remaining binding at 0.3 µM (NEK7; [2]) of the same molecule?
A: The remaining binding at 0.3 µM was 97%.

Q: What about the remaining binding at 0.3 µM (PDGFRA; [2]) of the same molecule?
A: Its remaining binding at 0.3 µM is 96%.

Q: And the remaining binding at 0.3 µM (VEGFR2; [2])?
A: The remaining binding at 0.3 µM was 95%.

Q: What about the remaining binding at 0.3 µM (AURKC; [2]) of the same molecule?
A: Its remaining binding at 0.3 µM is 54%.

Q: And the remaining binding at 0.3 µM (TNIK; [2])?
A: Its remaining binding at 0.3 µM is 86%.

Q: And the remaining binding at 0.3 µM (FGR; [2])?
A: The remaining binding at 0.3 µM was 8.6%.

Q: What about the remaining binding at 0.3 µM (BLK; [2]) of the same molecule?
A: Its remaining binding at 0.3 µM is 0.5%.

Q: How did the remaining binding at 0.3 µM (GAK; [3]) turn out when `C=CC(=O)N1CCC([C@@H]2CCNc3c(C(N)=O)c(-c4ccc(Oc5ccccc5)cc4)nn32)CC1` [Zanubrutinib] was run?
A: The remaining binding at 0.3 µM was 87%.

Q: And the remaining binding at 0.3 µM (BRK; [3])?
A: The remaining binding at 0.3 µM was 35%.

Q: What about the remaining binding at 0.3 µM (STK33; [3]) of the same molecule?
A: Its remaining binding at 0.3 µM is 93%.

Q: What about the remaining binding at 0.3 µM (PLK3; [3]) of the same molecule?
A: The remaining binding at 0.3 µM was 94%.

Q: And the remaining binding at 0.3 µM (NEK7; [3])?
A: The remaining binding at 0.3 µM was 91%.

Q: And the remaining binding at 0.3 µM (KIT(D816H); [3])?
A: Its remaining binding at 0.3 µM is 96%.

Q: And the remaining binding at 0.3 µM (PDGFRA; [3])?
A: The remaining binding at 0.3 µM was 100%.

Q: What about the remaining binding at 0.3 µM (VEGFR2; [3]) of the same molecule?
A: The remaining binding at 0.3 µM was 100%.

Q: What about the remaining binding at 0.3 µM (AURKC; [3]) of the same molecule?
A: The remaining binding at 0.3 µM was 97%.

Q: What about the remaining binding at 0.3 µM (TNIK; [3]) of the same molecule?
A: Its remaining binding at 0.3 µM is 85%.

Q: What about the remaining binding at 0.3 µM (FGR; [3]) of the same molecule?
A: Its remaining binding at 0.3 µM is 66%.

Q: How did the remaining binding at 0.3 µM (GAK; [4]) turn out when `CC#CC(=O)N1CCC[C@H]1c1nc(-c2ccc(C(=O)Nc3ccccn3)cc2)c2c(N)nccn12` [Acalabrutinib] was run?
A: Its remaining binding at 0.3 µM is 92%.

Q: And the remaining binding at 0.3 µM (BRK; [4])?
A: Its remaining binding at 0.3 µM is 87%.

Q: And the remaining binding at 0.3 µM (STK33; [4])?
A: The remaining binding at 0.3 µM was 90%.

Q: What about the remaining binding at 0.3 µM (PLK3; [4]) of the same molecule?
A: The remaining binding at 0.3 µM was 91%.

Q: And the remaining binding at 0.3 µM (NEK7; [4])?
A: Its remaining binding at 0.3 µM is 76%.

Q: What about the remaining binding at 0.3 µM (KIT(D816H); [4]) of the same molecule?
A: Its remaining binding at 0.3 µM is 82%.

Q: And the remaining binding at 0.3 µM (VEGFR2; [4])?
A: Its remaining binding at 0.3 µM is 98%.

Q: And the remaining binding at 0.3 µM (AURKC; [4])?
A: The remaining binding at 0.3 µM was 64%.

Q: And the remaining binding at 0.3 µM (TNIK; [4])?
A: The remaining binding at 0.3 µM was 79%.

Q: What about the remaining binding at 0.3 µM (FGR; [4]) of the same molecule?
A: Its remaining binding at 0.3 µM is 94%.

Q: What about the remaining binding at 0.3 µM (BLK; [4]) of the same molecule?
A: The remaining binding at 0.3 µM was 80%.

Reference: article PMC10004634 (PLOS ONE, 2023)
